According to patent US20260015339A1, “CALIX[4]ARENES WITH HIGH ANTICANCER ACTIVITY” (UNIVERSITE GRENOBLE ALPES, priority 2023, published 2026):

Assays:
[1] = Cu^+ transport into liposomes with encapsulated BCS; conditions: POPC/cholesterol 7:3 LUVs, calix[4]arene to lipid 1:1000, 50 μM copper gradient, F/F0 after 600 s
Description: The ability of the examples of calix[4]arenes of the invention and the comparative examples to be delivered into a lipidic bilayer membrane of a liposome from a solution and their capacity to then act as a transporter of Cu^+ was evaluated using bathocuproine disulphonate (hereafter abbreviated “BCS”) encapsulated in large unilamellar vesicles (LUVs, also referred to as liposomes) composed of 1-palmitoyl-2-oleoyl-sn-glycero-3-phosphocholine and cholesterol in a 7:3 ratio.
BCS is a fluorescent water soluble phenantroline derivative that can be used as fluorescent dye for the sensing of Cu^+ through the formation of a non-fluorescent 2:1 complex.
Stock solution of lipids were prepared using deacidified CHCl3 and stored in a freezer. CHCl3 was deacidified by passing through activated basic alumina. The lipids used to prepare the liposomes were 2-oleoyl-1-palmitoyl-sn-glycero-3-phosphocholine (POPC), (purity ≥99%) and cholesterol (purity of 95%). 50 mM sodium phosphate buffer were prepared with Millipore water at pH 7 (±0.1) by mixing the solution of the mono- and the di-protonated phosphate salts. The solution of the dye (BCS) was prepared at 0.5 mM concentration in phosphate buffer.
The lipids solutions were mixed in different ratios in a 5 mL round bottom flask. The POPC/cholesterol molar ratio was 7:3 in all experiments. The total amount of lipids per batch varied depending on the amount of liposomes solution required for the experiment. After mixing the lipid solutions in a round bottom flask, the chloroform was evaporated under a gentle air flow and the resulting lipid film was dried at high vacuum for at least an hour. 500 μL of the BCS solution in phosphate buffer and a magnetic stir bar were added to the flask. The flask was then sonicated for 30 seconds and placed under magnetic agitation for at least an hour. The solution was frozen with liquid nitrogen and heated back to room temperature with warm water ten times to form large unilamellar vesicles (LUVs). The liposome solution was extruded 29 times, using an extrusion kit equipped with a membrane with 200 nm pores. Subsequently, the solution was eluted with the buffer solution used for the experiment through a size exclusion column (Sephadex G-25) to remove the external BCS and then diluted with phosphate buffer to obtain a concentration of 0.4 mM in lipids.
Solutions of the calix[4]arenes were prepared at a concentration of 0.24 mM in DMSO and 5 μL of the solution was added 2 minutes before each transport measurement.
Alternatively, calix[4]arenes were pre-incorporated by combining the calix[4]arene (dissolved in chloroform) with the lipids prior to the evaporation of the chloroform to obtain a lipid film. The concentrations and volumes were chosen to obtain a calix[4]arene to lipid of 1:1000.
Fluorescence measurements were performed with a Horiba FluoroMax 4 spectrometer using a 4-faced quartz cuvette (10 mm×10 mm). For the Cu^+ transport assay, the excitation was set at 278 nm and emission was recorded at 393 nm. These values correspond to the excitation and emission maxima of BCS encapsulated inside LUVs.
The Cu^+ solutions added to the liposomes were obtained by dissolving Cu(MeCN)4BF4 in MeCN at 15.25 mM concentration. The copper solution was then diluted by a factor 5 in a phosphate buffer during the first 30 seconds of the experiment to reach a copper concentration of 3.05 mM. 50 μL of the diluted copper solution was added to 3 mL of liposomes, resulting in a copper gradient of 50 μM. The fluorescence level was monitored for 600 seconds after the addition of the copper solution.
For each run the initial plateau and the initial vertical drop (due to the binding of the exterior dye with Cu^+ and the dilution, 1-4 seconds after the addition) were removed. Then the signal was normalised by dividing the fluorescence values (F) by the value at t=0 second (F0). […]

[2] = system: Non-malignant HaCaT cells; assay: MTS cytotoxicity assay on HaCaT; format: cell-based; conditions: Homo sapiens, 72 hours of treatment
Description: Non-malignant HaCaT cells were seeded in 96-well plates together with the calix[4]arene of the formula (2). Cells were grown in RPMI-1640 supplemented with GlutaMAX™ (Gibco™) and fetal calf serum (FCS, 20%) and treated with a broad range of concentrations of the calix[4]arene of the formula (2). After 72 hours of treatment, the cytotoxicity was measured by means of the IC50 value, using the kit “CellTiter 96R AQuous One Solution Cell Proliferation Assay (MTS)” from Promega™. Following 30 minutes of incubation with the MTS reagent, the endpoint measurements were done in triplicate at 485 nm, using a fluorescence plate reader.

[3] = system: PC9 human lung cancer cell line; assay: Inhibition of PC9 cell proliferation (cell count); format: cell-based; conditions: 3 μM, until 72 hours
Description: (§1) The inhibition of a PC9 human lung cancer cell line proliferation by the calix[4]arene of the formulation (2) was determined by exposure of said PC9 human lung cancer cell line to a concentration of 3 μM of the compound of the formula (2) until 72 hours. The absolute number of cells were counted in the treated and untreated conditions before treatment (N0) and after 72 hours (Nt).
The FIG. 2 is a graph showing: • the profile of the proliferation index Nt/N0 of the PC9 cells after exposure with the calix[4]arene of the formula (2) with respect to the time (i.e. the curve entitled “calix[4]arene (2)”), • the profile of the proliferation index Nt/N0 of the PC9 cells without any exposure with the calix[4]arene of the formula (2) with respect to the time (i.e. the curve entitled “untreated”).

[4] = Ag^+ transport into liposomes with encapsulated BCS; conditions: after 100 s, silver gradient of 50 μM, 1:1000 transporter to lipid ratio, added from DMSO
Description: Liposomes with BCS encapsulated were prepared as described above in the part entitled “II—C—1—Determination of the transport of Cu^+by the examples of calix[4]arenes” and measurements were performed as described in this part.
A Ag^+ solution was prepared by dissolving AgNO3 in a phosphate buffer at 3.05 mM concentration. After the first 30 seconds of the experiment, 50 μL of the Ag^+ solution was added to 3 mL of liposomes, resulting in a silver gradient of 50 μM. The fluorescence level was monitored for 600 seconds after the addition of the copper solution.
When a solution of DMSO with the calix[4]arene of the formula (2) was added to the liposomes (5 μL, to obtain a 1:1000 transport to lipid ratio) the decrease in fluorescence intensity of BCS was much faster (F/F0=0.55 after 100 s) compared to when DMSO without calix[4]arene of the formula (2) (5 μL) was added (F/F0=0.85 after 100 s).

[5] = system: H322 lung carcinoma cell line; assay: Inhibition of H322 cell proliferation (cell count); format: cell-based; conditions: 3 μM, until 72 hours
Description: as §1, with “H322” for “PC9 human”, “carcinoma” for “cancer”, “formula” for “formulation”, “calix[4]arene” for “compound”
The FIG. 3 is a graph showing: • the profile of the proliferation index Nt/N0 of the H322 cells after exposure with the calix[4]arene of the formula (2) with respect to the time (i.e. the curve entitled “calix[4]arene (2)”), • the profile of the proliferation index Nt/N0 of the H322 cells without any exposure with the calix[4]arene of the formula (2) with respect to the time (i.e. the curve entitled “untreated”).

[6] = system: H322 lung carcinoma cells; assay: MTS cytotoxicity assay, combination with CuCl2, H322; conditions: NCI-H322, 72 h, read-out: percentage of cell viability
Description: H322 lung carcinoma cells were seeded in 96-well plates together with the calix[4]arene of the formula (2) and CuCl2. Cells were grown in RPMI-1640 supplemented with GlutaMAX™ (Gibco™) and fetal calf serum (FCS, 10%) treated with a broad range of concentrations of the calix[4]arene of the formula (2) or/and CuCl2 from Merck. After 72 hours of treatment, the cytotoxicity was measured by means of the IC50 value, using the kit “CellTiter 96R AQuous One Solution Cell Proliferation Assay (MTS)” from Promega™ Following 30 minutes of incubation with the MTS reagent, the endpoint measurements were done in triplicate at 485 nm, using a fluorescence plate reader.

CCCOc1c2cccc1Cc1cccc(c1OCc1nccn1C)Cc1cccc(c1OCCC)Cc1cccc(c1OCc1nccn1C)C2 [(2)]
Cu^+ transport [1]: Yes (means that a significant decrease of the fluorescence of encapsulated BCS was observed upon addition of Cu^+ to the liposomes (F/F0<0.65 after 600 s))
IC50 [2]: 1050 nM
proliferation index Nt/N0 (FIG. 2) [3]: clearly inhibits the proliferation
F/F0 (fluorescence intensity of BCS) [4]: 0.55
proliferation index Nt/N0 (FIG. 3) [5]: clearly inhibits the proliferation
viability at 0.1 µM [6]: 96.5%
viability at 0.5 µM [6]: 94.1%
viability at 1 µM [6]: 87%
viability at 1.5 µM [6]: 62.6%
